According to patent publication US20020010317A1, “Method for generating immunogens that elicit neutralizing antibodies against fusion-active regions of HIV envelope proteins” (priority 2000, published 2002):

Tests used:
[1] = test system: HIV-1 envelope mediated cell-cell fusion; details: cited from earlier work
gp41 (HXB2 strain) = gp41 (HXB2 strain) (Human immunodeficiency virus type 1 group M subtype B, UniProt P04578)
[2] = test system: divergent HIV-1 virus isolates; experiment: immunization of guinea pigs with P-18, neutralizing antibody response; type: in vivo, guinea pig; details: two of three animals; 100 μg intramuscularly in Freund's adjuvant
Method: Antibody binding assays can be used to determine the ability of the immunogen vaccines to generate an immune response to various forms of envelope (native vs. denatured). Virus neutralization assays can be used to characterize the antibody response raised against the gp41 domains. The most encouraging results have been from animals immunized with the peptide P-18 modeling the C-helix entry domain (amino acid residues 643-678 of gp41 ).
Guinea pigs were immunized intramuscularly with 100 μg of P-18 formulated in either Freund's complete (prime) or incomplete (boost) adjuvant. Animals were immunized on days 0, 21, 34, 48 and 62. Blood was collected on days 44,58 and 72. In our initial screen, sera at a 1:10 dilution were tested for the ability to inhibit virus-induced cell killing. In these assays, two of the three animals receiving the P-18 peptide (guinea pigs 233 and 234) were able to block the cytopathic effects of a pair of prototypic HIV-1 isolates. Against the MN isolate, >80% protection was achieved, while against the RF isolate, protection was >50%.

gp41 (HXB2 strain), sequence (P04578 512-856): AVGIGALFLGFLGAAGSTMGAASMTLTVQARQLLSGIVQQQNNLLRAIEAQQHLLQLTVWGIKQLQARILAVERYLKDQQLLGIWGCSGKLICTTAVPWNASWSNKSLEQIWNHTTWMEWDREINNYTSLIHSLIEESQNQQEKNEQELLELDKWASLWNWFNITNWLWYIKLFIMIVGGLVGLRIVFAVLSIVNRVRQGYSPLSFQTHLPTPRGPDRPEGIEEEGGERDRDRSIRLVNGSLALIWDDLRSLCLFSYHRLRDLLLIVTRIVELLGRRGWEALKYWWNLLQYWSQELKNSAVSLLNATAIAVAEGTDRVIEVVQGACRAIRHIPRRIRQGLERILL

Question: For “NNLLRAIEAQQHLLQLTVWQIKQLQARILAVERYLKDQ (NNLLRAIEAQQHLLQLTVWGIKQLQARILAVERYLKDQ) [DP-107]”, which “level inhibiting cell-cell fusion” value [1] is on record?
Answer: Its value is “sub-μg/ml levels”.

Question: Which “binding to and co-immunoprecipitation of gp41” value (gp41 (HXB2 strain)) does the source give for P-18-GGG-YPYDVPDYAGPG [P-18HA] here?
Answer: Its value is “bound to and co-immunoprecipitated gp41”.

Question: With enfuvirtide as the substance, how does the “neutralizing antibody response in immunized animals” value [2] read?
Answer: Its value is “exhibited a neutralizing antibody response against divergent virus isolates”.

Question: And the “concentration inhibiting envelope mediated cell-cell fusion” value ([1]; concentrations as low as)?
Answer: The value was “about 1 ng/ml”.
